Source: patent US9334289B2, “Cephem compound having catechol or pseudo-catechol structure” (SHIONOGI & CO., LTD., priority 2011, dated 2016)
≈ marks a conversion by molar mass, not a printed value.

What was measured:
Assay in all cases: MIC, CLSI broth microdilution, Test Example 2
Assay type in all cases: cell-based
[1] = tested on: P. aeruginosa SR01335; conditions: Pseudomonas aeruginosa, SR01335; VIM-1 like MBL producing strain (carbapenem resistance strain); cation-adjusted Iso-Sensitest broth containing human Apo-transferrin; 5×10^5 cfu/mL; read-out: Minimum Inhibitory Concentration (MIC) P. aeruginosa SR01335
Protocol: (§1) Measurement of Minimum Inhibitory Concentration (MIC: μg/mL) was conducted according to CLSI (Clinical and Laboratory Standards Institute) method, and the amount of bacteria for inoculation was 5×10^5 cfu/mL, and cation-adjusted Iso-Sensitest broth containing human Apo-transferrin was used as a test medium, and the experiment was conducted using broth microdilution method.

[2] = tested on: E. cloacae NCTC13464; conditions: Enterobacter cloacae, NCTC13464; CTX-M group 9 ESBL producing strain; cation-adjusted Iso-Sensitest broth containing human Apo-transferrin; 5×10^5 cfu/mL; read-out: Minimum Inhibitory Concentration (MIC) E. cloacae NCTC 13464
Protocol: as §1

[3] = tested on: E. coli ATCCBAA-200; conditions: Escherichia coli, ATCCBAA200; SHV-4 ESBL producing strain; cation-adjusted Iso-Sensitest broth containing human Apo-transferrin; 5×10^5 cfu/mL; read-out: Minimum Inhibitory Concentration (MIC) E. coli ATCC BAA-200
Protocol: as §1

[4] = tested on: E. coli ATCCBAA-196; conditions: Escherichia coli, ATCCBAA196; TEM-10 ESBL producing strain; cation-adjusted Iso-Sensitest broth containing human Apo-transferrin; 5×10^5 cfu/mL; read-out: Minimum Inhibitory Concentration (MIC) E. coli ATCC BAA-196
Protocol: as §1

[5] = tested on: E. coli SR01337; conditions: Escherichia coli, SR01337; TEM-1 ESBL producing strain; cation-adjusted Iso-Sensitest broth containing human Apo-transferrin; 5×10^5 cfu/mL; read-out: Minimum Inhibitory Concentration (MIC) E. coli SR01337
Protocol: as §1

[6] = tested on: A. baumannii SR01331; conditions: Acinetobacter baumannii, SR01331; PER-1, OXA-23.51 ESBL- & OXA-type carbapenemase producing strain; cation-adjusted Iso-Sensitest broth containing human Apo-transferrin; 5×10^5 cfu/mL; read-out: Minimum Inhibitory Concentration (MIC) A. baumannii SR01331
Protocol: as §1

[7] = tested on: P. aeruginosa SR01332; conditions: Pseudomonas aeruginosa, SR01332; VIM-11 MBL producing strain (carbapenem resistance strain); cation-adjusted Iso-Sensitest broth containing human Apo-transferrin; 5×10^5 cfu/mL; read-out: Minimum Inhibitory Concentration (MIC) P. aeruginosa SR01332
Protocol: as §1

[8] = tested on: K. pneumoniae ATCC700603; conditions: Klebsiella pneumoniae, ATCC700603; SHV18 ESBL producing strain; cation-adjusted Iso-Sensitest broth containing human Apo-transferrin; 5×10^5 cfu/mL; read-out: Minimum Inhibitory Concentration (MIC) K. pneumoniae ATCC 700603
Protocol: as §1

SMILES | MIC [1] | MIC [2] | MIC [3] | MIC [4] | MIC [5] | MIC [6] | MIC [7] | MIC [8]
Nc1nc(/C(=N/OC(C(=O)[O-])C(=O)[O-])C(=O)N[C@@H]2C(=O)N3C(C(=O)[O-])=C(C[N+]45CCC(CNC(=O)c6ccc(O)c(O)c6Cl)(CC4)CC5)CS[C@H]23)cs1.[Na+].[Na+] (some centres unmarked) [Comparative Compound 2, reference compound] | 4 µg/mL | 0.5 µg/mL | 1 µg/mL | 0.5 µg/mL | > 32 µg/mL | > 32 µg/mL | 32 µg/mL | 0.5 µg/mL
CC(C)(O/N=C(\C(=O)N[C@@H]1C(=O)N2C(c3nnn[n-]3)=C(C[n+]3cccc4c3CCCN4C(=O)c3ccc(O)c(O)c3Cl)CS[C@H]12)c1nc(N)sc1Cl)C(=O)[O-].[Na+] [Compound I-28] | 1 µg/mL | 0.5 µg/mL | 0.5 µg/mL | 0.125 µg/mL | ≤ 0.031 µg/mL | 0.5 µg/mL | 1 µg/mL | 0.125 µg/mL
CC(C)(O/N=C(\C(=O)N[C@@H]1C(=O)N2C(c3nnn[n-]3)=C(C[N@+]34CCC[C@H]3CN(C(=O)c3cc(O)c(O)c(Cl)c3)CC4)CS[C@H]12)c1nc(N)sc1Cl)C(=O)[O-].[Na+] [Compound I-29] | 2 µg/mL | 0.063 µg/mL | 0.063 µg/mL | ≤ 0.031 µg/mL | ≤ 0.031 µg/mL | 0.5 µg/mL | 4 µg/mL | 0.125 µg/mL
CC(C)(O/N=C(\C(=O)N[C@@H]1C(=O)N2C(c3nnn[n-]3)=C(C[N+]3(CCNC(=O)c4cc(O)c(O)c(Cl)c4)CCCC3)CS[C@H]12)c1nc(N)sc1Cl)C(=O)[O-].[Na+] [Compound I-30] | 2 µg/mL | 0.063 µg/mL | 0.063 µg/mL | ≤ 0.031 µg/mL | ≤ 0.031 µg/mL | 1 µg/mL | 2 µg/mL | 0.125 µg/mL
CC(C)(O/N=C(\C(=O)N[C@@H]1C(=O)N2C(c3nnn[n-]3)=C(C[n+]3ccc(CNC(=O)c4ccc(O)c(O)c4Cl)cc3)CS[C@H]12)c1nc(N)sc1Cl)C(=O)[O-].[Na+] [Compound I-31] | 1 µg/mL | 0.125 µg/mL | 0.25 µg/mL | 0.063 µg/mL | ≤ 0.031 µg/mL | 0.5 µg/mL | 1 µg/mL | 0.125 µg/mL
CC(C)(O/N=C(\C(=O)N[C@@H]1C(=O)N2C(c3nnn[n-]3)=C(C[N+]3(CCNC(=O)c4ccc(O)c(O)c4Cl)CCCCC3)CS[C@H]12)c1nc(N)sc1Cl)C(=O)[O-].[Na+] [Compound I-32] | 1 µg/mL | 0.063 µg/mL | 0.063 µg/mL | ≤ 0.031 µg/mL | ≤ 0.031 µg/mL | 0.25 µg/mL | 4 µg/mL | ≤ 0.031 µg/mL
CC(C)(O/N=C(\C(=O)N[C@@H]1C(=O)N2C(c3nnn[n-]3)=C(C[N+]3(C)[C@@H]4CC[C@H]3CC(NC(=O)c3cc(O)c(O)c(F)c3)C4)CS[C@H]12)c1nc(N)sc1Cl)C(=O)[O-].[Na+] (some centres unmarked) [Compound I-33] | 4 µg/mL | 0.25 µg/mL | 0.25 µg/mL | 0.063 µg/mL | 0.063 µg/mL | 0.5 µg/mL | 2 µg/mL | 0.25 µg/mL
CC(C)(O/N=C(\C(=O)N[C@@H]1C(=O)N2C(c3nnn[n-]3)=C(C[N@+]34CCC[C@H]3CN(C(=O)c3cc(O)c(O)c(F)c3)CC4)CS[C@H]12)c1nc(N)sc1Cl)C(=O)[O-].[Na+] [Compound I-34] | 2 µg/mL | 0.5 µg/mL | 0.25 µg/mL | 0.063 µg/mL | ≤ 0.031 µg/mL | 1 µg/mL | 4 µg/mL | 0.5 µg/mL
CC(C)(O/N=C(\C(=O)N[C@@H]1C(=O)N2C(c3nnn[n-]3)=C(C[n+]3ccc(NC(=O)c4ccc(O)c(O)c4Cl)cc3)CS[C@H]12)c1nc(N)sc1Cl)C(=O)[O-].[Na+] [Compound I-36] | 4 µg/mL | 0.125 µg/mL | 0.25 µg/mL | ≤ 0.031 µg/mL | ≤ 0.031 µg/mL | 0.5 µg/mL | 0.5 µg/mL | 0.5 µg/mL
CC(C)(O/N=C(\C(=O)N[C@@H]1C(=O)N2C(c3nnn[n-]3)=C(C[n+]3ccc4cc(O)c(O)cc4c3)CS[C@H]12)c1nc(N)sc1Cl)C(=O)[O-].[Na+] [Compound I-37] | 0.5 µg/mL | ≤ 0.031 µg/mL | 0.063 µg/mL | ≤ 0.031 µg/mL | ≤ 0.031 µg/mL | 0.25 µg/mL | 0.25 µg/mL | 0.063 µg/mL
Cc1cc2cc(O)c(O)cc2c[n+]1CC1=C(c2nnn[n-]2)N2C(=O)[C@@H](NC(=O)/C(=N\OC(C)(C)C(=O)[O-])c3nc(N)sc3Cl)[C@H]2SC1.[Na+] [Compound I-38] | 1 µg/mL | 0.125 µg/mL | 0.25 µg/mL | 0.063 µg/mL | ≤ 0.031 µg/mL | 0.5 µg/mL | 0.5 µg/mL | 0.125 µg/mL
Nc1nc(/C(=N/O[C@@H](CC(=O)[O-])C(=O)[O-])C(=O)N[C@@H]2C(=O)N3C(c4nnn[n-]4)=C(C[N+]45CCC[C@H]4CN(C(=O)c4ccc(O)c(O)c4Cl)CC5)CS[C@H]23)cs1.[Na+].[Na+] (some centres unmarked) [Compound I-57] | 1 µg/mL | 0.25 µg/mL | 0.25 µg/mL | 0.063 µg/mL | 0.063 µg/mL | 0.5 µg/mL | 8 µg/mL | 0.125 µg/mL
Nc1nc(/C(=N/O[C@@H](CC(=O)[O-])C(=O)[O-])C(=O)N[C@@H]2C(=O)N3C(c4nnn[n-]4)=C(C[N+]4(CCNC(=O)c5cc(Cl)c(O)c(O)c5Cl)CCCC4)CS[C@H]23)cs1.[Na+].[Na+] [Compound I-60] | 1 µg/mL | 0.063 µg/mL | 0.063 µg/mL | ≤ 0.031 µg/mL | ≤ 0.031 µg/mL | 0.5 µg/mL | 4 µg/mL | ≤ 0.031 µg/mL
C[N+]1(CC2=C(c3nnn[n-]3)N3C(=O)[C@@H](NC(=O)/C(=N\O[C@@H](CC(=O)[O-])C(=O)[O-])c4csc(N)n4)[C@H]3SC2)CCN(C(=O)c2ccc(O)c(O)c2Cl)CC1.[Na+].[Na+] [Compound I-61] | 4 µg/mL | 0.125 µg/mL | 0.25 µg/mL | 0.063 µg/mL | 0.063 µg/mL | 1 µg/mL | 4 µg/mL | 0.125 µg/mL
Nc1nc(/C(=N/O[C@@H](CC(=O)[O-])C(=O)[O-])C(=O)N[C@@H]2C(=O)N3C(c4nnn[n-]4)=C(C[N+]45CCC[C@H]4CN(C(=O)c4cc(O)c(O)c(F)c4)CC5)CS[C@H]23)cs1.[Na+].[Na+] (some centres unmarked) [Compound I-63] | 2 µg/mL | 0.25 µg/mL | 0.25 µg/mL | 0.063 µg/mL | 0.063 µg/mL | 1 µg/mL | 2 µg/mL | 0.25 µg/mL
Nc1nc(/C(=N/O[C@@H](CC(=O)[O-])C(=O)[O-])C(=O)N[C@@H]2C(=O)N3C(c4nnn[n-]4)=C(C[n+]4ccc5cc(O)c(O)cc5c4)CS[C@H]23)cs1.[Na+].[Na+] [Compound I-65] | 0.5 µg/mL | ≤ 0.031 µg/mL | ≤ 0.031 µg/mL | ≤ 0.031 µg/mL | ≤ 0.031 µg/mL | 0.125 µg/mL | 0.25 µg/mL | ≤ 0.031 µg/mL
CC(C)(O/N=C(\C(=O)N[C@@H]1C(=O)N2C(c3nnn[nH]3)=C(C[N+]3(C)CCN(C(=O)c4ccc(O)c(O)c4Cl)CC3)CS[C@H]12)c1nsc(N)n1)C(=O)O.[Na+] [Compound I-110] | 0.5 µg/mL | 0.25 µg/mL | – | 0.5 µg/mL | 0.063 µg/mL | 1 µg/mL | 8 µg/mL | 0.25 µg/mL
CC(C)(O/N=C(\C(=O)N[C@@H]1C(=O)N2C(c3nnn[nH]3)=C(C[N@+]34CCC[C@H]3CN(C(=O)c3cc(O)c(O)c(F)c3)CC4)CS[C@H]12)c1nsc(N)n1)C(=O)[O-] [Compound I-111] | 2 µg/mL (≈ 2.59 µM) | 0.25 µg/mL (≈ 0.323 µM) | – | 1 µg/mL (≈ 1.29 µM) | 0.125 µg/mL (≈ 0.162 µM) | 1 µg/mL (≈ 1.29 µM) | 2 µg/mL (≈ 2.59 µM) | 0.5 µg/mL (≈ 0.647 µM)
CC(C)(O/N=C(\C(=O)N[C@@H]1C(=O)N2C(c3nnn[nH]3)=C(C[N@+]34CCC[C@H]3CN(C(=O)c3ccc(O)c(O)c3Cl)CC4)CS[C@H]12)c1nsc(N)n1)C(=O)[O-] [Compound I-112] | 2 µg/mL (≈ 2.53 µM) | 0.25 µg/mL (≈ 0.317 µM) | – | 0.5 µg/mL (≈ 0.634 µM) | 0.063 µg/mL (≈ 0.0798 µM) | 1 µg/mL (≈ 1.27 µM) | 4 µg/mL (≈ 5.07 µM) | 0.5 µg/mL (≈ 0.634 µM)
